How the values were obtained:
HPSE = molecular target: T1, HPSE (Homo sapiens, UniProt Q9Y251); test: X-ray crystallography, ligand soaking of HPSE crystals; settings: crystal soaking
T1 sequence (Q9Y251 36-109 limits assumed): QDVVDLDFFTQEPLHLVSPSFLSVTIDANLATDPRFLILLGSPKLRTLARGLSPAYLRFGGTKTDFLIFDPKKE
T1 sequence (Q9Y251 158-543 limits assumed): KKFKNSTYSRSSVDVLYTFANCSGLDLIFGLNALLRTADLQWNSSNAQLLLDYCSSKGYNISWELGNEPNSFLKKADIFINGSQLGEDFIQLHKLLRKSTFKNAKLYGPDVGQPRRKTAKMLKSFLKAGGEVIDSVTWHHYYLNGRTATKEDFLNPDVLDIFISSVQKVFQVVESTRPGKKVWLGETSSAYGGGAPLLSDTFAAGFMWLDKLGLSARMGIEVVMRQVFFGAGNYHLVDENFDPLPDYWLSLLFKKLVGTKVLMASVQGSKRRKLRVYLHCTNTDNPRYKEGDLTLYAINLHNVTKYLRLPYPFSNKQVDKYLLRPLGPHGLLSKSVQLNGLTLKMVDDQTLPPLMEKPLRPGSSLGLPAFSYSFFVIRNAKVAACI
Excerpt: Xray diffraction data were collected at 100 K at beamlines i03 (HPSE-2, HPSE-3, HPSE-4, EcGUSB-1, BpHep-3), i04 (AcGH79-2, BpHep-2) and i04-1 (Apo-AcGH79, AcGH79-1, AcGH79-3) of the Diamond Light Source UK. Reflections were autoprocessed using the XIA2 pipeline. Complexes were solved by directly refining against their unliganded structures where isomorphous, or else solved by molecular replacement with PHASER (search model PDB accessions: 5E98 (HPSE), 3VNY (AcGH79), 3K46 (EcGUSB), 5BWI (BpHep)). […] Ligand coordinates were built using jLigand. Diagrams were generated using PyMOL.
HPSE—Well diffracting crystals of HPSE were obtained by the sitting-drop vapor-diffusion method at 20° C. using a well solution containing 0.1 M MES pH 5.5, 0.1 M MgCl2, 17% (w/v) PEG 3350, and a protein to well solution ratio of 200 nl:500 nl. Crystals typically appeared after 1 week. Inhibitor ligand complexes were obtained by transferring HPSE crystals to drops of well solution supplemented with 25% (v/v) ethylene glycol and 1-5 mM inhibitor. Crystals were incubated with ligand for ˜2-4 h, then directly harvested and flash-cooled in LN2 for data collection.
To better understand the molecular basis of interaction between our inhibitors and their targets, we turned to X-ray crystallography, using ligand soaking to derivatize enzymes in crystallo.

[1] = test system: HPSE in U87 glioma-cell lysates; test: HSPG digest assay, U87 cell lysates; format: cell-based, human; settings: inhibitor applied before or after cell lysis, comparable H35S solubilization profiles
Experimental: ECM coated 35 mm culture dishes containing ^35S labelled HS were prepared as previously described (Vlodavsky et al., Curr. Protoc. Cell. Biol., Chapter 10, Unit 10, 14). Briefly, bovine corneal endothelial cells were plated at an initial density of 2×10^5 cells/ml, with 4% dextran T-40 (Sigma) included in the growth medium. Na2^35SO4 (25 μCi/ml) was added to the incubation medium on days 2 and 5 after seeding. On day 12, subendothelial ECM is exposed by dissolving the cells with PBS containing 0.5% Triton X-100 and 20 mM NH4OH, followed by four washes with PBS. For HS-degradation assays, ECM coated dishes were incubated with 200 ng recombinant HPSE in 1 mL reaction mixture (10 mM buffer Phosphate-Citrate pH 6.0, 50 mM NaCl, 1 mM DTT, 1 mM CaCl2) containing HPSE inhibitors or DMSO control. Plates were incubated at 37° C. for 5 h, then assay medium collected and applied to a 0.9×30 cm Sepharose 6B size exclusion column. The Sepharose 6B column was eluted with PBS, and ^35S radioactivity of 0.2 mL fractions quantitated using a liquid scintillation analyzer (Packard BioScience). Digest assays with U87 cell lysates were carried out in a similar fashion, except plates were incubated for 18 h with cell extracts prepared from 1×10^6 U87 glioma cells lysed by 3× freeze/thaw cycles.

rHPSE = molecular target: T2, rHPSE (Homo sapiens, UniProt Q9Y251); test: in-gel competitive ABPP, recombinant HPSE; format: biochemical; settings: apparent IC50, in-gel competitive ABPP-based assay; read-out: In vitro IC50 rHPSE
T2 sequence (Q9Y251 36-109 limits assumed): T1 sequence (Q9Y251 36-109 limits assumed)
T2 sequence (Q9Y251 158-543 limits assumed): T1 sequence (Q9Y251 158-543 limits assumed)
Experimental: ABP labelling reactions were carried out in Mcllvaine buffer (pH 5.5), 300 mM NaCl. For recombinant proteins 200 fmol of EcGH2, BpHep, AcGH79, HPSE or proHPSE was used (20 nM in 10 μl final reaction volume). For labeling cell lysates, 4-20 μg total protein was used. Labeling reactions were initiated by the addition of ABP compounds 7, 8 or 9 to a final concentration of 100 nM (unless otherwise specified), before incubation for 30 min at 37° C. with shaking. Following labeling, samples were denatured by boiling with Laemmli buffer for 5 min and resolved by SDS-PAGE. Gels were scanned using Typhoon-5 laser scanner platform (Cytiva), using the λEX 635 nm laser and 670BP30 emission filter. For competitive ABPP (cABPP) experiments, protein mixtures were preincubated with inhibitor (or buffer only control) for 1 h at 37° C. with shaking, before the addition of 7 to a final concentration of 100 nM, and subsequent incubation for 30 min at 37° C. with shaking. SDS-PAGE and analysis steps were carried out as above. For quantitative measurements, fluorescently labeled band intensities were calculated using Imagequant (Cytiva), and normalized to the corresponding band in the inhibitor free control lane. cABPP plots were prepared and analyzed using SigmaPlot 14.0 (Systat).
Competitive activity of compounds 2, 12 and 13 were investigated using cABPP Assay 2.
To gain insight into HPSE structure-activity relationships, apparent HPSE inhibition was tested for cyclitol 12, its disaccharidic analogue 13 and parent HPSE inhibitor 2 (FIG. 7a). […] Conversely, 13 could inactivate rHPSE down to 2 μM inhibitor concentration similar to 2.

CC(=O)NC1C(O)[C@H](O)C(CO)O[C@@H]1O[C@H]1C(O)C(O)[C@@H]2OC2C1C(=O)O (stereo partly drawn) [Compound 2, 4-O-(2-N-acetyl-2-deoxy-D-glucopyranosyl)-glucurono-cyclophellitol]
binding mode in HPSE active site cleft (HPSE): covalent linkages between their pseudo-anomeric carbons and the enzyme nucleophile Glu343 | cell penetration / inhibition of intracellular HPSE pool [1]: can penetrate cells to inhibit the intracellular HPSE pool | IC50 (rHPSE): 300 ± 200 nM
